US11109593B2, “Isoxazolin-5-one derivative and herbicide containing same as active ingredient” (HOKKO CHEMICAL INDUSTRY CO., LTD., priority 2017, dated 2021)

Legend:
Format in all cases: in vivo
Echinochloa crus-galli [1] = experiment: Test Example 3: herbicidal effect test by treatment of dry field farming soil (one day after seeding); conditions: 120 g/10a active ingredient, evaluated 14 days after treatment
Procedure, shortened: (§1)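 Alluvial dry-field soil in pots, top 1 cm mixed with 20 seeds per weed species. One day after seeding, the water-diluted emulsion was sprayed onto the soil surface at 100 L per 10 ares (120 g active ingredient per 10 ares). Duplicate pots; herbicidal rate (%) from plant dry weight versus untreated, 14 days after treatment.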

Amaranthus viridis [2] = experiment: as above; conditions: 120 g/10a active ingredient, evaluated 14 days after treatment
Procedure, shortened: as §1

southern crabgrass [3] = experiment: as above; conditions: 120 g/10a active ingredient, evaluated 14 days after treatment
Procedure, shortened: as §1

Chenopodium album [4] = experiment: as above; conditions: 120 g/10a active ingredient, evaluated 14 days after treatment
Procedure, shortened: as §1

Echinochloa crus-galli [5] = experiment: Test Example 2: herbicidal effect test by treatment during growing period in paddy rice cultivation (seven days after seeding); conditions: 120 g/10a active ingredient, assessed 14 days after treatment, dry weight vs untreated area
Procedure, shortened: (§2)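 Seeds sown 0–1 cm deep in puddled, fertilised paddy soil with about 3 cm standing water in a glass greenhouse. Diluted emulsion dropped into the water seven days after seeding at 120 g active ingredient per 10 ares. Herbicidal rate (%) from mean dry weight vs untreated, duplicate, 14 days after treatment.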

[6] = test system: broad leaf weeds (Lindernia pyxidaria and Monochoria vaginalis); experiment: as above; conditions: 120 g/10a active ingredient, assessed 14 days after treatment, dry weight vs untreated area
Procedure, shortened: as §2

Scirpus juncoides [7] = experiment: as above; conditions: 120 g/10a active ingredient, assessed 14 days after treatment, dry weight vs untreated area
Procedure, shortened: as §2

Echinochloa crus-galli [8] = experiment: Test Example 4: herbicidal effect test by treatment of leave and stem in dry field farming (seven days after seeding); conditions: 120 g/10a active ingredient; emulsion sprayed seven days after seeding; evaluated 14 days after treatment
Procedure, shortened: (§3)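 Duplicate pots were scored 14 days post-spray by dry weight, herbicidal rate = {1 − treated/untreated average dry weight} × 100. The water-diluted emulsion, equivalent to 120 g active ingredient per 10 ares in 100 L, was applied seven days after sowing 20 seeds each into the upper 1 cm of alluvial soil.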

Amaranthus viridis [9] = experiment: as above; conditions: 120 g/10a active ingredient; emulsion sprayed seven days after seeding; evaluated 14 days after treatment
Procedure, shortened: as §3

southern crabgrass [10] = experiment: as above; conditions: 120 g/10a active ingredient; emulsion sprayed seven days after seeding; evaluated 14 days after treatment
Procedure, shortened: as §3

Chenopodium album [11] = experiment: as above; conditions: 120 g/10a active ingredient; emulsion sprayed seven days after seeding; evaluated 14 days after treatment
Procedure, shortened: as §3

Echinochloa crus-galli [12] = experiment: Test Example 1: herbicidal effect test by treatment of rice paddy soil (immediately after seeding); conditions: 120 g/10a active ingredient, dry weight vs untreated area, 14 days after treatment
Procedure, shortened: (§4)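 Application occurs immediately after seeding, with diluted emulsion added to paddy water (about 3 cm deep) over puddled, fertilized soil at 120 g active ingredient per 10 ares. Herbicidal rate is calculated from mean dry weight against untreated controls 14 days later.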

[13] = test system: broad leaf weeds (Lindernia pyxidaria and Monochoria vaginalis); experiment: as above; conditions: 120 g/10a active ingredient, dry weight vs untreated area, 14 days after treatment
Procedure, shortened: as §4

Scirpus juncoides [14] = experiment: as above; conditions: 120 g/10a active ingredient, dry weight vs untreated area, 14 days after treatment
Procedure, shortened: as §4

Structure (SMILES)	herbicidal rate, Echinochloa crus-galli (Echinochloa crus-galli [1])	herbicidal rate, Amaranthus viridis (Amaranthus viridis [2])	herbicidal rate, southern crabgrass (southern crabgrass [3])	herbicidal rate, Chenopodium album (Chenopodium album [4])	Herbicidal rate (%) Echinochloa crus-galli (Echinochloa crus-galli [5])	Herbicidal rate (%) Lindernia pyxidaria [6]	Herbicidal rate (%) Monochoria vaginalis [6]	Herbicidal rate (%) Scirpus juncoides (Scirpus juncoides [7])	herbicidal effect (herbicidal rate), Echinochloa crus-galli (Echinochloa crus-galli [8])	herbicidal effect (herbicidal rate), Amaranthus viridis (Amaranthus viridis [9])	herbicidal effect (herbicidal rate), southern crabgrass (southern crabgrass [10])	herbicidal effect (herbicidal rate), Chenopodium album (Chenopodium album [11])	Herbicidal rate (%) Echinochloa crus-galli (Echinochloa crus-galli [12])	Herbicidal rate (%) Lindernia pyxidaria [13]	Herbicidal rate (%) Monochoria vaginalis [13]	Herbicidal rate (%) Scirpus juncoides (Scirpus juncoides [14])
Cc1c(Cc2ccccc2N(S(C)(=O)=O)S(=O)(=O)C(F)(F)F)c(=O)on1CC(C)(C)C [Compound 1-893]	90%	90%	90%	90%	90%	90%	90%	90%	90%	40%	90%	40%	90%	90%	90%	90%
CCCC(C)n1oc(=O)c(Cc2ccccc2N(S(C)(=O)=O)S(=O)(=O)C(F)(F)F)c1C (stereo not shown) [Compound 1-894]	90%	70%	90%	60%	90%	70%	70%	80%	90%	60%	90%	60%	100%	80%	60%	100%
CCC(C)Cn1oc(=O)c(Cc2ccccc2N(S(C)(=O)=O)S(=O)(=O)C(F)(F)F)c1C (stereo not shown) [Compound 1-895]	100%	80%	100%	50%	90%	70%	80%	90%	80%	50%	80%	60%	100%	90%	80%	90%
COCC(C)n1oc(=O)c(Cc2ccccc2N(S(C)(=O)=O)S(=O)(=O)C(F)(F)F)c1C (stereo not shown) [Compound 1-899]	90%	90%	90%	90%	90%	90%	90%	90%	90%	40%	90%	40%	90%	90%	90%	90%
CSCCn1oc(=O)c(Cc2ccccc2N(S(C)(=O)=O)S(=O)(=O)C(F)(F)F)c1C [Compound 1-900]	90%	90%	90%	90%	90%	90%	90%	90%	90%	40%	90%	40%	90%	90%	90%	90%
Cc1c(Cc2ccccc2N(S(C)(=O)=O)S(=O)(=O)C(F)(F)F)c(=O)on1Cc1ccc(F)cc1 [Compound 1-906]	100%	50%	90%	70%	90%	100%	100%	100%	90%	100%	50%	50%	100%	100%	100%	100%
Cc1c(Cc2ccccc2N(S(C)(=O)=O)S(=O)(=O)C(F)(F)F)c(=O)on1C(C)c1ccccc1 (stereo not shown) [Compound 1-907]	90%	90%	90%	90%	90%	90%	90%	90%	90%	40%	90%	40%	90%	90%	90%	90%
CCC(C)n1oc(=O)c(Cc2ccccc2N(S(=O)(=O)CC)S(=O)(=O)C(F)(F)F)c1C (stereo not shown) [Compound 1-913]	90%	90%	90%	90%	90%	90%	90%	90%	90%	40%	90%	40%	90%	90%	90%	90%
CCS(=O)(=O)N(c1ccccc1Cc1c(C)n(C(C)COC)oc1=O)S(=O)(=O)C(F)(F)F (stereo not shown) [Compound 1-915]	90%	90%	90%	90%	90%	90%	90%	90%	90%	40%	90%	40%	90%	90%	90%	90%
CCS(=O)(=O)N(c1ccccc1Cc1c(C)n(CCSC)oc1=O)S(=O)(=O)C(F)(F)F [Compound 1-916]	90%	90%	90%	90%	90%	90%	90%	90%	90%	40%	90%	40%	90%	90%	90%	90%
